Where “and” joins values, the source holds several entries; their conditions need not be identical. Identical values can stand only once. Calls of active or inactive are those of the source.
Experiments:
Cytochrome P450 3A4 = Cytochrome P450 3A4 (Homo sapiens, UniProt P08684);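 further: CYP3A4 tested as one member of a cytochrome P450 panel screen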
Cytochrome P450 2C9 = Cytochrome P450 2C9 (Homo sapiens, UniProt P11712)
Cytochrome P450 2C19 = Cytochrome P450 2C19 (Homo sapiens, UniProt P33261); assay: Cytochrome panel assay with activity outcomes. Panel member name: p450-cyp2c19 Compounds with AC50 equal or less than 10 uM are considered active; format: functional
Sequence of Cytochrome P450 2C19 (P33261 whole entry): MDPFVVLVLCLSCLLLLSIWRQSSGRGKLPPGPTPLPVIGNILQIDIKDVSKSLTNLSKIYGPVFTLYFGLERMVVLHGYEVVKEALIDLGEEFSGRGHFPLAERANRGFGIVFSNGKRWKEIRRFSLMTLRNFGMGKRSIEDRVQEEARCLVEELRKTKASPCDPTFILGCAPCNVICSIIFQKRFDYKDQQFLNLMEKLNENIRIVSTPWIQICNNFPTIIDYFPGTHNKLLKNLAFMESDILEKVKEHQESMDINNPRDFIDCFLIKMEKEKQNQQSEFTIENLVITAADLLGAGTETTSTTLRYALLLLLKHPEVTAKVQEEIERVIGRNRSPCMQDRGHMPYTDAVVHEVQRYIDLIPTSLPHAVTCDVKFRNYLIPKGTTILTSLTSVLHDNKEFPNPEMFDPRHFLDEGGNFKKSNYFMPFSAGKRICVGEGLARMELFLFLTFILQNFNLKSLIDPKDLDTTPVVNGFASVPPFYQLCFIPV

Cytochrome P450 2D6 = Cytochrome P450 2D6 (Homo sapiens, UniProt P10635);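 further: CYP2D6 member of a cytochrome P450 panel assay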
Sequence of Cytochrome P450 2D6 (P10635 whole entry): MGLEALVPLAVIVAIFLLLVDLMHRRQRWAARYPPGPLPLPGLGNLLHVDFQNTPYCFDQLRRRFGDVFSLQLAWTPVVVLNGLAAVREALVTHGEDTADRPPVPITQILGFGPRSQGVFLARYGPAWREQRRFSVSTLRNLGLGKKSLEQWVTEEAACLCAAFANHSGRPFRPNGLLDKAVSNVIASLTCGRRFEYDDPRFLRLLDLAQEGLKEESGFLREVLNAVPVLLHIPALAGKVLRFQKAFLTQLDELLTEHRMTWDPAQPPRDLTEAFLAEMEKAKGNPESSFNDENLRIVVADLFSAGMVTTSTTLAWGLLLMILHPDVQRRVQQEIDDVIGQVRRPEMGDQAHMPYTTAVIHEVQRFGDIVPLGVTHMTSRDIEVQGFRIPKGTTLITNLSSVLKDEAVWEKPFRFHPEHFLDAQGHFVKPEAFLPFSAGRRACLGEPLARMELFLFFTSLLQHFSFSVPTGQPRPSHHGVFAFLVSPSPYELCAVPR

Cytochrome P450 1A2 = biological target: T1, Cytochrome P450 1A2 (Homo sapiens, UniProt P05177);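 further: PubChem cytochrome P450 panel assay, CYP1A2 panel member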
T1 sequence (P05177 whole entry): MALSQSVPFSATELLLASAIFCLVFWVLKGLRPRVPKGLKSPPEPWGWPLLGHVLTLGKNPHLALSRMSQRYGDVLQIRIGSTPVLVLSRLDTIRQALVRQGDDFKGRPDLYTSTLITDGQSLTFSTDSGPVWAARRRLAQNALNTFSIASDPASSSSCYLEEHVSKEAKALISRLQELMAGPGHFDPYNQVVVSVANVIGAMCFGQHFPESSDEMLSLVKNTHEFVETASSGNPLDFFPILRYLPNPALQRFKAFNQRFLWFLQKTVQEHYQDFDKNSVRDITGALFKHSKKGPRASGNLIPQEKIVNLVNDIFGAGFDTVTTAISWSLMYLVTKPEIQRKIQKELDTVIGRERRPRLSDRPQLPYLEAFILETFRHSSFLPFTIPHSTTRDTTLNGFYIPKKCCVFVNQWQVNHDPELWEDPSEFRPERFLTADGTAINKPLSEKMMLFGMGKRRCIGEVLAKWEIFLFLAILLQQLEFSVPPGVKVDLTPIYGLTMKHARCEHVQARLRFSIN

[1] = biological target: T2, Corticotropin-releasing factor receptor 2/Corticotropin-releasing factor-binding protein (Homo sapiens, UniProt P24387+Q13324); assay: Dose Response confirmation of uHTS hits for small molecule antagonists of the CRF-binding protein and CRF-R2 receptor complex.; format: functional; conditions: read-out: IC50_Mean
T2 sequence (Q13324 whole entry): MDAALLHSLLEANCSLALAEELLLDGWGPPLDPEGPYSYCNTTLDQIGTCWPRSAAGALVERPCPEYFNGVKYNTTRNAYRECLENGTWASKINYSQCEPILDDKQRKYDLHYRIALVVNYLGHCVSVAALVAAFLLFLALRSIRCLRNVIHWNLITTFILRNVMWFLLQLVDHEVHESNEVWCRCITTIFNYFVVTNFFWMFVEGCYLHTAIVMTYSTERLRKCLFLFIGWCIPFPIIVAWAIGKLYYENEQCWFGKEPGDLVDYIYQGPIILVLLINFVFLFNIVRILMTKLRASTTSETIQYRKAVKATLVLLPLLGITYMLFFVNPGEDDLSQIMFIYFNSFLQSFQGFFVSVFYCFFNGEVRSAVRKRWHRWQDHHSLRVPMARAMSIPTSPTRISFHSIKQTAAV
T2 sequence (P24387 whole entry): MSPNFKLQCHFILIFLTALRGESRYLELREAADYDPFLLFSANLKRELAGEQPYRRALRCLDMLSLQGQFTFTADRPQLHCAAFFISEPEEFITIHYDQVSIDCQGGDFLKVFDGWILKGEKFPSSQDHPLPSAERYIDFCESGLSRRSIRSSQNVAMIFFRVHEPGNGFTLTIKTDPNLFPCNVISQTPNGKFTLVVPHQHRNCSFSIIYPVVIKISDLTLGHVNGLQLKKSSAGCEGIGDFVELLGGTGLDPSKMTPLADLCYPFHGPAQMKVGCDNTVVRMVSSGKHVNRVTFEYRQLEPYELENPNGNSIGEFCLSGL

[2] = biological target: T2, Corticotropin-releasing factor receptor 2/Corticotropin-releasing factor-binding protein; assay: activators of CRF receptor 2 with binding protein – uHTS hits, confirmation (AID 602473); format: functional; conditions: read-out: EC50_Mean
[3] = biological target: T3, Replicative DNA helicase DnaB (Mycobacterium tuberculosis, UniProt P9WMR3); assay: DnaB intein splicing inhibitors, dose response, biochemical, cell-free fluorescence (AID 449749); format: functional
T3 sequence (P9WMR3 whole entry): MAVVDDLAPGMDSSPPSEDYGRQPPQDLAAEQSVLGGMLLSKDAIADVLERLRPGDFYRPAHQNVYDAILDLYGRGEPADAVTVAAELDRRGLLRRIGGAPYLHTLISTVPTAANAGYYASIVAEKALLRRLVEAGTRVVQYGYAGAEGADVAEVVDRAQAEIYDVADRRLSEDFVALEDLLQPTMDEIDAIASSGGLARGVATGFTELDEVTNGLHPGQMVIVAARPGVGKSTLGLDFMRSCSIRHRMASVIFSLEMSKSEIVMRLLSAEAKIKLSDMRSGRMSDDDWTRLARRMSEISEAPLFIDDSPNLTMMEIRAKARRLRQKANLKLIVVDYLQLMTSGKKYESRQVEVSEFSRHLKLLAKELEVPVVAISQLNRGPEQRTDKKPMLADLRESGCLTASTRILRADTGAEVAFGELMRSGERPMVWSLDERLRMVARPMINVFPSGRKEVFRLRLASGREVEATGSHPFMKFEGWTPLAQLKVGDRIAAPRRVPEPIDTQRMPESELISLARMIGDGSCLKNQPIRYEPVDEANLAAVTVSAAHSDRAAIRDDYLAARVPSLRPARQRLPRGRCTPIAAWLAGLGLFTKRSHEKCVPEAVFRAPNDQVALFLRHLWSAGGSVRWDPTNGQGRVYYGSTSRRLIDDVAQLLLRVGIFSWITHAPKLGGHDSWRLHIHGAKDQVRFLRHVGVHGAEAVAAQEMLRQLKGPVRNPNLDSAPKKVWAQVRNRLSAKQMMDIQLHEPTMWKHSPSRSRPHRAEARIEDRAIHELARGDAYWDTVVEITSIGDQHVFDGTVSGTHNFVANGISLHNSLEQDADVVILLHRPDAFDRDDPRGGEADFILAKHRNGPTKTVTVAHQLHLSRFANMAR

Protein RecA = biological target: T4, Protein RecA (Mycobacterium tuberculosis, UniProt P9WHJ3); assay: Fluorescence Cell-Free Homogeneous Dose Retest to Identify Inhibitors of RecA-Intein Splicing Activity. [Related pubchem assays (depositor defined):AID2097, AID2223, AID489010, AID492950]; format: functional
T4 sequence (P9WHJ3 whole entry): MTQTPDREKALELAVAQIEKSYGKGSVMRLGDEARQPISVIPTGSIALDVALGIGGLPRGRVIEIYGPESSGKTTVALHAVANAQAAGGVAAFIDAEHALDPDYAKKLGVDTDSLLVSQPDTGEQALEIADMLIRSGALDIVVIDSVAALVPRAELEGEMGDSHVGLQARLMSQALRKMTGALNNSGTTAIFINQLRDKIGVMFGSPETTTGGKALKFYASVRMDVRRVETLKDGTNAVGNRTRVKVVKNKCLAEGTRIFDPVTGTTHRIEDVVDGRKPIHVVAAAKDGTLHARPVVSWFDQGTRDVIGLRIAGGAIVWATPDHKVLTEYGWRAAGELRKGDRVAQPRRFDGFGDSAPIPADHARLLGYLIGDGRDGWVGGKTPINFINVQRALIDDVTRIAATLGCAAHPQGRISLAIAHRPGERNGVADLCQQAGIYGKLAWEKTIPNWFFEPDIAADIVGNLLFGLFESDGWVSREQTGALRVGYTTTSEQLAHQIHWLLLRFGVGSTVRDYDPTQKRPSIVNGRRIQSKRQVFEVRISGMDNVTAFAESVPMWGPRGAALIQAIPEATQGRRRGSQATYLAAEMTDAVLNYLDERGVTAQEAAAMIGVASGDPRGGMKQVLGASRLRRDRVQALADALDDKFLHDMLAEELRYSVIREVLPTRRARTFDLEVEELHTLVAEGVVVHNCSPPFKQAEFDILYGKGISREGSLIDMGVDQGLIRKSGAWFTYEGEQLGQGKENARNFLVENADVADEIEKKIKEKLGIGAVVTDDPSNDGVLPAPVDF

[4] = Trypanosoma cruzi growth suppression in host cells – NIH3T3 host cells, beta-gal luminescence, confirmation (AID 2044); format: functional, cell-based;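 further: intracellular parasites grown in NIH/3T3 mouse fibroblasts as host cells; luminescent beta-galactosidase reporter signal from transgenic T. cruzi replicating inside host cells; inhibitors lower the luminescence signal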
[5] = NIH3T3 cell viability loss – ATP luminescence, mouse fibroblasts, counter-screen, dose response (AID 2010); format: functional, cell-based;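 further: cells exposed to compound for about 90 hours before reading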

Sequence of Cytochrome P450 2C9 (P11712 whole entry): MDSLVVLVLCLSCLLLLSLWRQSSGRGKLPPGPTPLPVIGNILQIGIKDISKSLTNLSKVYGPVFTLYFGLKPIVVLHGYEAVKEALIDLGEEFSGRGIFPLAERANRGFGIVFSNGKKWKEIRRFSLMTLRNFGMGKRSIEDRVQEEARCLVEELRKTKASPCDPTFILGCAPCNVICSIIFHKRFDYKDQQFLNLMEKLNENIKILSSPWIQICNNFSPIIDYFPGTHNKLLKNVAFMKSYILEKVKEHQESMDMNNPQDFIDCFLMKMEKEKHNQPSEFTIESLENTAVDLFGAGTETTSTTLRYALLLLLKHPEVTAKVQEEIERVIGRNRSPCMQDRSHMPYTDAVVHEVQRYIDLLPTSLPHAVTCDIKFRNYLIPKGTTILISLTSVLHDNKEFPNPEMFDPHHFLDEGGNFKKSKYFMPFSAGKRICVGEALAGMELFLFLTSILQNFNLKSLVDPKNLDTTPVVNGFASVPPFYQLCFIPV
Sequence of Cytochrome P450 3A4 (P08684 whole entry): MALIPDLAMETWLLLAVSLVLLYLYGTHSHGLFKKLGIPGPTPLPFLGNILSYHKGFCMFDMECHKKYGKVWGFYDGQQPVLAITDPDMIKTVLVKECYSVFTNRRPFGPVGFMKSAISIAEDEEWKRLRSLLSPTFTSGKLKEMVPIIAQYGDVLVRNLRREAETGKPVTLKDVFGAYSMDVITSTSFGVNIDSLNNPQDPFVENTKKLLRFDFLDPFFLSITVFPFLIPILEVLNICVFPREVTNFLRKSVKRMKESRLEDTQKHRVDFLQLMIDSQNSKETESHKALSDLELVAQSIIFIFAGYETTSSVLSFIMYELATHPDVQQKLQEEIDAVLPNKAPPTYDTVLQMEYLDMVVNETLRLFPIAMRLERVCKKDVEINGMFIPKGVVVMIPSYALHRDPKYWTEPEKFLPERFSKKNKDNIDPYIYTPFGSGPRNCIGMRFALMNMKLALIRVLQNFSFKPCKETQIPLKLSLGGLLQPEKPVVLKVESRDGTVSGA

## Cc1cc(NC(=O)CSc2ccc3nnc(-c4ccc(F)cc4)n3n2)no1
Cytochrome P450 3A4
  AC50: 14.1 µM (inconclusive)
Cytochrome P450 2C9
  AC50: 25.1 µM (inconclusive)

## O=C(c1ccncc1)N1CCC2(CC1)CCN(c1ccccn1)CC2
Cytochrome P450 2C19; read-out: AC50
  AC50: 1 µM (inconclusive)
Cytochrome P450 2D6
  AC50: 31.6 µM (inconclusive)
Cytochrome P450 1A2
  AC50: 12.6 µM (inconclusive)

## CO[C@@H]1/C=C\CC(=O)N[C@@H](C)C(=O)OC[C@@H](OC)[C@H](C)/C=C\CC(=O)OC[C@H]1C
Cytochrome P450 3A4
  AC50: 3.98 µM (inconclusive)

## CC[C@@]1(O)C(=O)COc2c1cc1n(c2=O)Cc2c-1nc1cccc(C(C)C)c1c2[Si](C)(C)C
Cytochrome P450 3A4
  AC50: 15.8 µM (inconclusive)

## O=C(Nc1cccc(F)c1)N1CCC2(CC1)CCN(C(=O)c1ccncc1)CC2
Cytochrome P450 3A4
  AC50: 12.6 µM (inconclusive)

## CSC1=N/C(=C\c2ccc3c(c2)OCO3)C(=O)S1
Cytochrome P450 3A4
  AC50: 7.94 µM (inconclusive)

## CCOc1ccc(C2=Nn3c(nnc3-c3ccco3)SC2)cc1
Cytochrome P450 3A4
  AC50: 15.8 µM (inconclusive)

## CCOC(=O)N1CCN(C(=O)c2ccc3nc(SCc4ccc(F)cc4)n(C)c3c2)CC1
[1]
  IC50: > 47.1 µM (inactive)
[2]
  EC50: > 53 µM (inactive)
Cytochrome P450 3A4
  AC50: 39.8 µM (inconclusive)

## COc1ccc(OC)c(-c2[nH]nc3c2C(c2ccco2)C(C#N)=C(N)O3)c1 (stereo unspecified)
[3]
  AC50: 185 µM (active)
Protein RecA
  EC50: 3.22 µM (active)

## COc1cccc(CN2CCN(Cc3ccc(C#CC(C)(C)O)s3)CC2CCO)c1 (stereo unspecified)
[3]
  AC50: > 380 µM (inactive)
Protein RecA
  EC50: > 380 µM (inactive)

## COC(=O)c1c(C)ccc2c(O)c3c(cc12)C(=O)c1c2c(cc(O)c1C3=O)[C@@]1(C)O[C@@](C)(O2)[C@@H](O)[C@H](N(C)C)[C@H]1O
Cytochrome P450 2C19; read-out: AC50
  AC50: 3.98 µM (inconclusive)
Cytochrome P450 1A2
  AC50: 5.01 µM (inconclusive)
Cytochrome P450 2C9
  AC50: 2.51 µM (inconclusive)

## COc1cccc(Cn2c(=O)c(-c3cccc(F)c3)nc3cncnc32)c1
Cytochrome P450 2D6
  AC50: 20 µM (inconclusive)
Cytochrome P450 3A4
  AC50: 7.94 µM (inconclusive)

## COc1ccc(OC)c(N(CC(=O)N2CCc3ccccc3C2)S(C)(=O)=O)c1
Cytochrome P450 2C19; read-out: AC50
  AC50: 11.2 µM (inconclusive)
Cytochrome P450 1A2
  AC50: 15.8 µM (inconclusive)
Cytochrome P450 2C9
  AC50: 12.6 µM (inconclusive)

## Cc1ccc(C2C(C#N)=C(N)Oc3[nH]nc(-c4ccccc4)c32)o1 (stereo unspecified)
[3]
  AC50: 4.75 µM (active)
Protein RecA
  EC50: 19.3 µM (active)

## Cc1ccc(C)c(NC(=S)N(CCc2nc3cc(C)c(C)cc3[nH]2)Cc2cccnc2)c1
[4]
  EC50: 0.813 µM (active)
[5]
  EC50: > 60 µM (not active)
Cytochrome P450 2C19; read-out: AC50
  AC50: 2 µM (inconclusive)
Cytochrome P450 1A2
  AC50: 4.47 µM (inconclusive)

## N#Cc1cccc(-c2nc(Nc3ccncc3)c3ccccc3n2)c1
Cytochrome P450 3A4
  AC50: 0.501 µM (inconclusive)
Cytochrome P450 2C9
  AC50: 1.58 µM (inconclusive)

## CCCn1c(=O)[nH]c(=O)c2c1nc(-c1ccc(OC(F)F)c(OC)c1)n2CCOC
[3]
  AC50: > 380 µM (inactive)
Protein RecA
  EC50: > 380 µM (inactive)

## O=c1c2c(n3cnnc3n1-c1ccccc1)-c1ccccc1CC21CCCCC1
Cytochrome P450 2C19
  AC50: inconclusive
Cytochrome P450 3A4
  AC50: 15.8 µM (inconclusive)

## CN(C)Cc1ccccc1-c1nccc(N(C)Cc2ccco2)n1
Cytochrome P450 3A4
  AC50: 31.6 µM (inconclusive)

## O=C(NCCNS(=O)(=O)c1ccc(Cl)cc1)c1cc(OCC(F)(F)F)ccc1OCC(F)(F)F
Cytochrome P450 2D6
  AC50: 3.16 µM (inconclusive)
Cytochrome P450 1A2
  AC50: 2.82 µM (inconclusive)
Cytochrome P450 3A4
  AC50: 7.08 µM (inconclusive)
Cytochrome P450 2C9
  AC50: 0.0251 µM (inconclusive)

## O=C(CCn1nc(-c2ccc(Cl)cc2)c2ccccc2c1=O)NCCN1CCOCC1
Cytochrome P450 2C19; read-out: AC50
  AC50: 28.2 µM (inconclusive)
Cytochrome P450 2D6
  AC50: 15.8 µM (inconclusive)
Cytochrome P450 2C9
  AC50: 17.8 µM (inconclusive)

## COc1cc2c(cc1OC)[C@]13CC[N@+]4(C)CC5=CCO[C@H]6CC(=O)N2[C@@H]1[C@@H]6[C@@H]5C[C@]34O
Cytochrome P450 3A4
  AC50: 1 µM (inconclusive)

## CC1=NC2(O)c3ccccc3C(=O)C2(O)/C1=C(/O)OC(C)C (stereo unspecified)
[3]
  AC50: 21.2 µM (active)
Protein RecA
  EC50: 14.7 µM (active)

## O=C(C/C=N\OCc1c(Cl)cccc1Cl)Oc1ccc(Cl)cc1Cl
[3]
  AC50: 21.8 µM (active)
Protein RecA
  EC50: 7.56 µM (active)

## C/C(=N\NC(=O)c1cccc(C)c1)c1cccc(NC(=O)c2ccco2)c1
Cytochrome P450 2C19; read-out: AC50
  AC50: 39.8 µM (inconclusive)
Cytochrome P450 1A2
  AC50: 14.1 µM (inconclusive)
Cytochrome P450 2C9
  AC50: 39.8 µM (inconclusive)

## C/C(CC(=O)Nc1ccccn1)=N\NC(=O)c1ccncc1
[3]
  AC50: 2.86 µM (active)
Protein RecA
  EC50: 1.94 µM (active)

## COc1ccccc1N1CCN(CCN2C(=O)CC3(CCCC3)CC2=O)CC1 [BMY-7378]
Cytochrome P450 3A4
  AC50: 20 µM (inconclusive) and 39.8 µM (inconclusive)

From ChEMBL document CHEMBL1201862, “PubChem BioAssay data set” (2004)
